# Experimental data: ChEMBL document CHEMBL1955866, “New cyclic peptides with osteoblastic proliferative activity from Dianthus superbus” (Bioorg Med Chem Lett, 2012)
# Where a SMILES comes first, the peptide text is derived from it.
# Legend:
# Type in all cases: functional, cell-based
# [1] = Osteoblastic proliferative activity in […] MC3T3-E1 cells at 10^-2 mM by MTT assay
# [2] = Osteoblastic proliferative activity in […] MC3T3-E1 cells at 10^-5 mM by MTT assay
# [3] = Osteoblastic proliferative activity in […] MC3T3-E1 cells at 10^-3 mM by MTT assay
# [4] = Osteoblastic proliferative activity in rat MC3T3-E1 cells at 10^-4 mM by MTT assay
# [5] = Osteoblastic proliferative activity in […] MC3T3-E1 cells at 10^-6 mM by MTT assay
Compound,Activity [1] [%],Activity [2] [%],Activity [3] [%],Activity [4] [%],Activity [5] [%]
[F-].[Na+],46.2,,,,
CC(C)C[C@@H]1NC(=O)[C@H]([C@@H](C)O)NC(=O)[C@H](CC(C)C)NC(=O)[C@@H]2CCCN2C(=O)CNC(=O)[C@H](Cc2ccccc2)NC1=O (cyclo(FGPLTL)),13.7,38.2,3.9,21.7,25.4
CC[C@H](C)[C@@H]1NC(=O)[C@H]([C@@H](C)O)NC(=O)[C@H](C(C)C)NC(=O)[C@@H]2CCCN2C(=O)CNC(=O)[C@H](Cc2ccccc2)NC1=O (cyclo(FGPVTI)),22.5,33.9,17,26.3,17.2
